What was measured:
HCMV [1] = assay: HCMV titer (yield) reduction assay in HFF cells; type: cell-based, human cytomegalovirus (Towne strain); conditions: for HCMV titer reduction activity: in words, FIG. 2 or FIG. 3; for HCMV titer reduction, fold better than acyclovir: FIG. 1
Source text: (§1) The 148 strain of HSV-1 was used in most experiments and was provided by Dr. T. W. Schafer of Schering Corporation. The HF strain of HSV-1 was used in selected experiments and was obtained from Dr. G. H. Cohen, University of Pennsylvania. The Towne strain, plaque-purified isolate Po, of HCMV was a gift of Dr. Mark Stinski, University of Iowa.
(§2) HCMV was titered in 24-well cluster dishes which were planted to contain 5×10^4 HFF cells/well, grown as described above. When the cells were 70 to 80% confluent, 0.2 ml of the virus suspension was added per wall and adsorbed as described above. At least three ten-fold dilutions of each preparation were used. Following virus adsorption, the cell sheets were overlayed with 0.5% methocel (4000 CPS) in maintenance medium [(MEM) with 1.1 gm/liter NaHCO3, 100 units/ml penicillin G, 100 μg/ml streptomycin, and 5% fetal bovine serum]. The cultures were incubated in a humidified atmosphere of 4% CO2 -96% air. Viral foci were visible 5 to 7 days after infection using at least 10-fold magnification. Cells were fixed and stained by a 10-minute exposure to a 0.1% solution of crystal violet in 20% methanol 7 to 12 days after infection. Microscopic foci were enumerated at 20-fold magnification using a Nikon Profile Projector.
For titer reduction assays, HFF cells were planted as described above in 24-well cluster dishes or in 25 cm^2 flasks. When monolayers were approximately 70% confluent, HCMV was added at a m.o.i. of 0.5 p.f.u. per cell and adsorbed as detailed above. Compounds dissolved in growth medium were added in one or one-half logarithm 10 dilutions and incubation continued at 37° C. After 7 to 10 days of incubation, culture dishes or flasks were frozen at […] For titer determination, cells were thawed and then subjected to two more cycles of freezing and thawing at 37° C. Serial, one-logarithm10 dilutions of the final suspension were prepared and inoculated onto new cultures of HFF cells. Titer determination was as detailed above in part (1) (b).
(§3) Dose-response relationships were used to compare drug effects. These were constructed by linearly regressing the percent inhibition of parameters derived in the preceding sections against log drug concentrations. The 50% inhibitory (I50) concentrations were calculated from the regression lines using the methods described by Goldstein. See Goldstein, A., Biostatistics: An Introductory Text, MacMillan, N.Y., 1964, pp. 156-161. Along with the I50 concentration for visual cytotoxicity, the averaged I50 concentrations are compared to I50 concentrations for inhibition for HCMV or HSV-1 replication. Compounds for which the ratio of cytotoxicity I50 concentrations to antiviral I50 concentrations (in vitro therapeutic index) were greater than 10, were considered for further study.

MCMV = assay: Mortality of mice infected with murine cytomegalovirus; type: in vivo
Protocol: Compound UMJD 183 was tested in mice infected with murine cytomegalovirus (MCMV). This animal model has been recognized as having capabilities predictive of efficacy in humans.
(§4) Compound UMJD 183 and the drug ganciclovir (DHPG) were administered to groups of 15 mice each at doses and times of administration shown in Table 3. Each compound at all doses was administered intraperitoneally twice daily for five days beginning at either 6, 24 or 48 hours after virus inoculation. Animals were observed daily and the number dying each day recorded.
^a Animlas were treated i.p. twice daily for 5 days with the doses
stated above. Treatment was initiated at the times indicated following

KB cells = assay: Growth of KB cells (population doubling); type: cell-based, human
Protocol: (§5) Population doubling times and cell viability were measured in uninfected HFF and/or KB cells. Cells were planted in replicate 6-well plastic tissue culture dishes or in 25 cm^2 flasks as described above in part 1. Following an incubation period during which cells attached to the substrate, medium was decanted, the cell sheet rinsed once with HBS, and fresh medium added. The medium consisted of MEM(E) with 1.1 gm NaHCO3 /liter and 10% fetal bovine or calf serum plus appropriate log or half-log concentrations of drug. After additional periods of incubation from 1 to 72 hours at 37° C., cells were harvested by means of 0.05% trypsin plus 0.02% EDTA in a HEPES-buffered salt solution. Cells were enumerated using either a Coulter counter or a hemocytometer and viability determining using […] dye exclusion.
In more extensive cytotoxicity testing, the halogenated compounds were tested for effects on the growth of KB cells. Populations doubling times were calculated from the logarithmic portions of growth curves and were as follows: […]

[2] = Drug toxicity control in uninfected mice; type: in vivo
Protocol: as §4
Even when the compound was administered 48 hours after virus infection, compound UMJD 183 reduced mortality from 80-93% in controls to 40% in the presence of 5.6 mg/kg of the drug. When UMJD 183 was administered sooner, 6 or 24 hours after virus infection, mortality was reduced further to 7 or 20%, respectively.
^d Drug toxicity control. No virus administered.

HCMV [3] = assay: HCMV plaque (focus) reduction assay in HFF cells; type: cell-based, human cytomegalovirus (Towne strain); conditions: in words
Protocol: as §1
Stock HCMV was prepared by infecting HFF cells at a multiplicity of infection (m.o.i.) of less than 0.01 plaque-forming units (p.f.u.) per cell. Cell growth medium was changed every four days until cytopathology was evident in all cells (approximately 21 days). Supernatant fluids were retained as the virus stock. Four days later, the remaining cells were disrupted by three cycles of freeze-thawing and the cell plus medium held as an additional source of virus. Storage was in liquid nitrogen.
as §2
The effect of compounds of the replication of HCMV has been measured using both a plaque (focus) reduction assay and a titer (yield) reduction assay. For the former, HFF cells in 24-well culture dishes were infected with approximately 50 p.f.u. of HCMV per well using the procedures detailed above. Compounds dissolved in growth medium were added in three to six selected concentrations to triplicate wells following virus adsorption. Following incubation at 37° C. for 7 to 10 days, cell sheets were fixed, stained and microscopic foci were enumerated as described above. Drug effects were calculated as a percentage of reduction in number of foci in the presence of each drug concentration compared to the number observed in the absence of drug. DHPG (ganciclovir) was used as a positive control in all experiments.
as §3

HFF cells = assay: Growth of human diploid fibroblasts (HFF cells); type: cell-based; conditions: for population doubling of HFF cells: 100 μM, control cells underwent two doublings
Protocol: as §5
The effect of these compounds on the growth of human diploid fibroblasts (HFF cells) was less pronounced. During a 70-hour incubation, control cells underwent two doublings. […] A 100 μM concentration reduced the number of cells by less than 10%.

[4] = Visual cytotoxicity in BSC-1 cells; type: cell-based, African green monkey; conditions: monkey, visual cytotoxicity at time of HSV-1 plaque enumeration, read-out: 50% Inhibitory Concentration, Cytotoxicity BSC
Source text: Cytotoxicity produced in HFF and BSC-1 cells was estimated by visual scoring of cells not affected by virus infection in the HCMV and HSV-1 plaque reduction assays. Cytopathology was estimated at 35- and 60-fold magnification and scored on a zero to four plus basis. Wells were scored on the day of staining.

[5] = previously reported; cited from earlier work
[6] = 1.9 mg/kg i.p. twice daily, from 6 h
[7] = 1.9 mg/kg i.p. twice daily, from 24 h
[8] = 1.9 mg/kg i.p. twice daily, from 48 h
[9] = 5.6 mg/kg i.p. twice daily, from 6 h
[10] = 5.6 mg/kg i.p. twice daily, from 24 h
[11] = 5.6 mg/kg i.p. twice daily, from 48 h
[12] = 16.7 mg/kg i.p. twice daily, from 6 h
[13] = 16.7 mg/kg i.p. twice daily, from 24 h
[14] = 16.7 mg/kg i.p. twice daily, from 48 h
[15] = 50 mg/kg i.p. twice daily, from 6 h
[16] = 50 mg/kg i.p. twice daily, from 24 h
[17] = 50 mg/kg i.p. twice daily, from 48 h

OCC(CO)OCn1cc(I)c2c(NO)ncnc21 [UMJD 329, 4-hydroxylamino-5-iodo-7-[(1,3-dihydroxy-2-propoxy)methyl]pyrrolo[2,3-d]pyrimidine]
HCMV titer reduction activity (HCMV [1]): active and nearly as potent as the 4-amino analogs

OCC(CO)OCn1cc(Cl)c2c(NO)ncnc21 [UMJD 328, 4-hydroxylamino-5-chloro-7-[(1,3-dihydroxy-2-propoxy)methyl]pyrrolo[2,3-d]pyrimidine]
HCMV titer reduction activity (HCMV [1]): active and nearly as potent as the 4-amino analogs

Nc1ncnc2c1c(Br)cn2COC(CO)CO [UMJD 183, 4-amino-5-bromo-7-[(1,3-dihydroxy-2-propoxy)methyl]-pyrrolo[2,3-d]pyrimidine]
MDD (Mean Day of Death) (MCMV; [6]): 6.2
Mortality Percent (MCMV; [6]): 33%
MDD (Mean Day of Death) (MCMV; [7]): 4.8
Mortality Percent (MCMV; [7]): 60%
MDD (Mean Day of Death) (MCMV; [8]): 4.8
Mortality Percent (MCMV; [8]): 67%
MDD (Mean Day of Death) (MCMV; [9]): 8.0
Mortality Percent (MCMV; [9]): 7%
MDD (Mean Day of Death) (MCMV; [10]): 6.3
Mortality Percent (MCMV; [10]): 20%
MDD (Mean Day of Death) (MCMV; [11]): 5.5
Mortality Percent (MCMV; [11]): 40%
increase in number of animals surviving (MCMV; 5.6 mg/kg i.p., in words): highly significant increases in the number of animals surviving the virus infection
MDD (Mean Day of Death) (MCMV; [12]): 8.7
Mortality Percent (MCMV; [12]): 60%
MDD (Mean Day of Death) (MCMV; [13]): 7.1
Mortality Percent (MCMV; [13]): 80%
MDD (Mean Day of Death) (MCMV; [14]): 8.4
Mortality Percent (MCMV; [14]): 87%
MDD (Mean Day of Death) (MCMV; [15]): 10.8
Mortality Percent (MCMV; [15]): 60%
MDD (Mean Day of Death) (MCMV; [16]): 8.8
Mortality Percent (MCMV; [16]): 93%
MDD (Mean Day of Death) (MCMV; [17]): 7.5
Mortality Percent (MCMV; [17]): 97%
effect on life span (mean day of death) (MCMV; all doses, i.p.): prolonged life span (increased the mean day of death) at all doses
time of KB cell growth in the presence of the drug before slowing or stopping (KB cells; KB cells): up to 20 hours
effect on growth of KB cells (KB cells; in words): growth of KB cells also was inhibited, but to a lesser extent
growth in the presence of up to 32 μM drug (KB cells; up to 32 μM, 50 hours): at a reduced rate
HCMV titer reduction activity (HCMV [1]): most active
MDD (Mean Day of Death), Toxicity ([2]; 16.7 mg/kg, no virus): 5.0
deaths in uninfected animals ([2]; all doses together, i.p.): 1 death in 60 animals
toxicity in uninfected animals ([2]; in words, i.p.): virtually no toxicity

OCC(CO)OCn1cc(Br)c2c(NO)ncnc21 [UMJD 299, 4-hydroxylamino-5-bromo-7-[(1,3-dihydroxy-2-propoxy)methyl]pyrrolo[2,3-d]pyrimidine]
HCMV titer reduction activity (HCMV [1]): active and nearly as potent as the 4-amino analogs

Nc1ncnc2c1c(I)cn2COCCO [UMJD 104, 4-Amino-5-iodo-7-(2-hydroxyethoxymethyl)pyrrolo[2,3-d]-pyrimidine]
activity against HCMV (HCMV [3]): active against HCMV
population doubling of HFF cells (HFF cells; 70 hours): one population doubling
effect on growth of HFF cells (HFF cells; in words): more pronounced
HCMV titer reduction, fold better than acyclovir (HCMV [1]): approximately 10 fold

Nc1ncnc2c1c(Cl)cn2COCCO [UMJD 100, 4-Amino-5-chloro-7-(2-hydroxyethoxymethyl)pyrrolo[2,3-d]-pyrimidine]
activity against HCMV (HCMV [3]): active against HCMV
effect on KB cell growth (KB cells; 100 μM, in words): affected KB cell growth to only a minor extent
decrease in number of HFF cells (HFF cells; 10 or 32 μM, 70 hours, in words): no decrease in the number of cells

Nc1nc2c(ncn2COCCO)c(=O)[nH]1 [Acyclovir, reference compound]
activity against HCMV (HCMV [3]): only modest activity against HCMV
CC50 [4]: > 100 µM

NC(=S)c1cn(COCCO)c2ncnc(N)c12 [UMJD 229, 4-Amino-7-(2-hydroxyethoxymethyl)pyrrolo[2,3-d]pyrimidine-5-thiocarboxamide]
activity against HCMV (HCMV [3]): active against HCMV

N#Cc1cn([C@@H]2O[C@H](CO)[C@@H](O)[C@H]2O)c2ncnc(N)c12 [toyocamycin]
broad spectrum antiviral activity [5]: Broad spectrum antiviral activity

NC(=O)c1cn([C@@H]2O[C@H](CO)[C@@H](O)[C@H]2O)c2ncnc(N)c12 [sangivamycin]
broad spectrum antiviral activity [5]: Broad spectrum antiviral activity

Nc1ncnc2c1ccn2[C@@H]1O[C@H](CO)[C@@H](O)[C@H]1O [tubercidin]
broad spectrum antiviral activity [5]: Broad spectrum antiviral activity

Nc1ncnc2c1c(Br)cn2COCCO [UMJD 102, 4Amino-5-bromo-7-(2-hydroxyethoxymethyl)pyrrolo[2,3-d]-pyrimidine]
activity against HCMV (HCMV [3]): active against HCMV
cytostatic effect (KB cells; in words): cytostatic
population doubling of HFF cells (HFF cells; 70 hours): one population doubling
effect on growth of HFF cells (HFF cells; in words): more pronounced
HCMV titer reduction, fold better than acyclovir (HCMV [1]): approximately 10 fold
